# Experimental data as given in US20250082663A1, “COMPOUNDS AND METHODS FOR TREATING OR […] DOMINANT POLYCYSTIC KIDNEY DISEASE (ADPKD), AUTOSOMAL DOMINANT […] DISEASE (ADPLD) AND/OR AUTOSOMAL RECESSIVE POLYCYSTIC KIDNEY DISEASE (ARPKD)” (YALE UNIVERSITY, priority 2021, published 2025).
# pIC50: −log10 of the molar value. “Also recorded” adds a separate entry of the source.
# What was measured:
# [1] = tested on: Pkd1^flox/flox; Pax8rtTA; tet-OCre mice; assay: Adult ADPKD model, complete loss of function (doxycycline-induced Pkd1 deletion); type: in vivo, mouse; settings: for KW/BW ratio: p=0.03
# Description: FIGS. 19A-19B: Ire1α inhibitor improves disease progression in an adult ADPKD model. Adult onset model with complete loss of function (Pkd1fl/fl;Pax8rtTA;tet-OCre). […]
# The present study first tested toyocamycin in Pkd1^flox/flox; Pax8rtTA; tet-OCre mice. […] […] The present study recapitulated these findings in another slow progressing adult ADPKD model. A compound mutant model with a floxed Pkd1 allele in trans with a human pathogenic hR2220W (mR2216W) missense mutation that causes defects in PC1 GPS cleavage and trafficking was used. Pkd1^R2216W/flox line was crossed with either Pkhd1-Cre or Pax8rtTA; Tet-OCre to generate neonatal or adult doxycycline inducible lines respectively.
# [2] = tested on: Pkd1^R2216W/flox; Pkhd1-Cre mice; assay: Neonatal ADPKD model with Pkd1 R2216W missense mutation in trans with floxed allele; type: in vivo, mouse
# Description: Effect of toyocamycin were investigated in a relevant ADPKD model. For this a mouse model was constructed with a human Pkd1 missense mutation (R2216W) in trans with a floxed allele on a Pkhd1-Cre and Pax8-rtTA; tet-OCre background.
# (§1) The present study first tested toyocamycin in Pkd1^flox/flox; Pax8rtTA; tet-OCre mice. Animals were given doxycycline water between P28 to P42 then treatment was started from week 6 until week 18 (0.5 mg/kg; once every 2 weeks; 6 i.p. injections). […] The present study recapitulated these findings in another slow progressing adult ADPKD model. A compound mutant model with a floxed Pkd1 allele in trans with a human pathogenic hR2220W (mR2216W) missense mutation that causes defects in PC1 GPS cleavage and trafficking was used. Pkd1^R2216W/flox line was crossed with either Pkhd1-Cre or Pax8rtTA; Tet-OCre to generate neonatal or adult doxycycline inducible lines respectively.
# [3] = tested on: Pkd1^R2216W/flox; Pax8rtTA; tet-OCre mice; assay: Adult ADPKD model with Pkd1 R2216W missense mutation in trans with floxed allele; type: in vivo, mouse
# Description: In order to examine whether this drug leads to disease modifying effects in the adult counterpart of this model, Pkd1^RW/fl; Pax8^rtTA; Tet-OCre mice were generated. In this mice the Cre recombinase is turned on throughout the nephron (except for the PT S3 segment) using a doxycycline inducible system. The mice received doxycycline in the drinking water from P28-P42to induce Cre and inactivate Pkd1 and were then injected with toyocamycin once every 2weeks starting at 6 weeks of age.
# as §1
# Finally, the present study examined the status of apoptosis in kidneys isolated from Pkd1^R2216W/flox; Pax8rtTA; tet-OCre mice treated with toyocamycin between week 12 to 18 (FIG. 34). […] Finally, the present study set forth to examine whether the effect seen in mice can be recapitulated with a relevant cell line model. Although cell line models for PKD are average mimics of the animal models, they do provide opportunities for a closer look at mechanisms of genotype-phenotype relationships in the context of programmed cell death. The present study used a previously described cell line i.e. PN24; Pkd1^−/−) as the starting point for inactivation of XBP1 via CRISPR/Cas9. At baseline, no differences in cell viability among the 3 genotypes i.e. Pkd1^het, Pkd1^−/−, and Pkd1/XBP1 DKO were observed. The present study then compared the response of Pkd1^+/−, Pkd1^−/−, and Pkd1/XBP1 DKO cells to a sensitized background induced by treatment with 11β-dichloro, an ROS inducer.
# cystic cell = assay: Cystic cell viability (FIGS. 18A-18B); type: cell-based
# PKD mice = PKD mice / preclinical models, model not further specified; type: in vivo, mouse
# Description: FIGS. 22A-22C: Irela inhibitor prevents cyst growth in preclinical models.
# FIG. 36: Gene inactivation between P28 and P42. Treatment (0.5 mg/kg; 1×/2 wks) between 6-18 weeks of age.
# The basal activity of spliced active XBP1s appears to be a protective survival factor for PC1-null cells that form cysts. […] Thus, specific pharmacological inhibition of the endoribonuclease activity of IRE1α, by inhibiting its ability to splice XBP1 to active XBP1s, should be beneficial in slowing cyst growth in ADPKD. This hypothesis was tested pharmacologically by inhibiting IRE1α endoribonuclease activity using toyocamycin, which is a potent IRE1α endoribonuclease inhibitor.
# [4] = target: Ire1α endoribonuclease activity (Homo sapiens, UniProt O75460); settings: cited from earlier work
# Ire1α endoribonuclease activity, sequence (O75460 19-977): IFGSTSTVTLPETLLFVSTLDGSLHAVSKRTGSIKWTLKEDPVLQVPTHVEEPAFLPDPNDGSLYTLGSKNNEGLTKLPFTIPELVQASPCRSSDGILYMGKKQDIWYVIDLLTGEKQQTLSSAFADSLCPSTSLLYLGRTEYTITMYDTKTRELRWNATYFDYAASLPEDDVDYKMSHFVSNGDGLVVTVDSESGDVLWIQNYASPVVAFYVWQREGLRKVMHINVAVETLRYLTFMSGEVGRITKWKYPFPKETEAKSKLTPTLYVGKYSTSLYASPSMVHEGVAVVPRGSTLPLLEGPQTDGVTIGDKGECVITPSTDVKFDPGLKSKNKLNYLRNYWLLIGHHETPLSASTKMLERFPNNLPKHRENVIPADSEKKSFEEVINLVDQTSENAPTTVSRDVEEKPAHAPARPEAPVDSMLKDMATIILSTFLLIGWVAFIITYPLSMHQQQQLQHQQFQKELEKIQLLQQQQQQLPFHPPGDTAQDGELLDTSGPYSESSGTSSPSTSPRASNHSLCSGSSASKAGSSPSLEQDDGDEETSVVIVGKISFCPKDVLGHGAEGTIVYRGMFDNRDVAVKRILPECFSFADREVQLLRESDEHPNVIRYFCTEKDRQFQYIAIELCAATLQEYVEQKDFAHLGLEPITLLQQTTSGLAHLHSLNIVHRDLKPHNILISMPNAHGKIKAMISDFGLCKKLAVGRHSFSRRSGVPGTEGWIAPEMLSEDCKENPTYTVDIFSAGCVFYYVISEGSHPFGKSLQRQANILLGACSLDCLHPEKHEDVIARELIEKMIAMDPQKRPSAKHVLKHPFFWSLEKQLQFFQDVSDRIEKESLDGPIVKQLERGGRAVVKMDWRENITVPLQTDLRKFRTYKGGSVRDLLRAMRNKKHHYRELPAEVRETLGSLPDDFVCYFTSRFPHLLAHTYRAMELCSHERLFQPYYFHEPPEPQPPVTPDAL
# IRE1α kinase activity = IRE1α kinase activity (Homo sapiens, UniProt O75460); settings: Ri, et al., 2012; cited from earlier work
# IRE1α kinase activity, sequence (O75460 19-977): as above
# nucleotide incorporation = settings: up to concentrations of 10 uM; cited from earlier work
# [5] = Phase 1 trial; no changes in Hb, WBC, Pt, AP, SGOT and BUN; cited from earlier work
# [6] = treatment from p9 to p16 (once/week), vs vehicle treated animals
# [7] = 0.5 mg/kg i.p. once every 2 weeks, between week 6 and 18 (6 doses), p<0.001
# [8] = mouse, in vivo, listed as Irela inhibitor
smiles,measurement,setting,value
"N#Cc1cn([C@@H]2O[C@H](CO)C(O)C2O)c2ncnc(N)c12 (stereo partly drawn) [toyocamycin, 4-Aminopyrrolo[2,3-d]pyrimidine-5-carbonitrile 7-(β-D-ribofuranoside)]",liver toxicity,"[1]; 0.5 mg/kg IP, 1×/week, from 13 wks until 18 wks",does not cause liver toxicity
same,KW/BW ratio,"[1]; 0.5 mg/kg every 2 weeks between 12 and 18, FIGS. 31A-31B",decrease
same,KW/BW ratio,"[1]; 0.5 mg/kg i.p. once every 2 weeks, week 6 until week 18, vs untreated mice",significant decrease
same,disease progression,"[1]; treatment from 6 to 18 weeks, started immediately after gene inactivation",improves
same,disease at P16,[2]; 0.5 mg/kg at P10,significantly improved disease
same,KW/BW ratio,"[2]; 1 dose 0.5 mg/kg i.p. at P10, assessed at P16, p<0.001",dramatic improvement
same,BUN,"[2]; 1 dose 0.5 mg/kg i.p. at P10, assessed at P16, p<0.05",dramatic improvement
same,cystic phenotype (morphological and functional parameters),[2]; FIG. 6,dramatic improvement
same,BUN (marker of kidney function),[2]; [6],dramatic decrease
same,KW/BW ratio,[2]; [6],dramatic decrease
same,BUN,[3]; [7],almost a complete rescue; also recorded: dramatic improvement
same,KW/BW ratio,[3]; [7],almost a complete rescue; also recorded: dramatic improvement
same,cyst growth,"[3]; 0.5 mg/kg, 1×/2 wks between 6-18 weeks of age",prevents
same,apoptosis of cyst lining epithelia (TUNEL),"[3]; 0.5 mg/kg, 1×/2 wks, listed as Ire1α inhibitor",causes apoptosis
same,disease progression,"[3]; once every 2 weeks starting at 6 weeks of age, vs vehicle treated animals",almost complete inhibition
same,effect in cells where Cre is not expressed (selectivity),"[3]; preliminary analysis, data not shown",restricted to Pkd1 null segments
same,apoptosis in kidneys (TUNEL),"[3]; treated between week 12 to 18, proximal tubules marked by LTA",specific TUNEL-positive signal in cyst lining cells
same,levels of spliced XBP1 (qPCR),"[3]; treated vs. untreated mice, target engagement",lower; also recorded: decreased expression
same,cystic phenotype (morphological and functional parameters),"[3]; treatment from 6 weeks until 18 weeks age, FIG. 7",dramatic improvement
same,body weight,"[3]; untreated vs. treated animals, once every 2 weeks, week 6 to 18",did not differ
same,cystic cell viability,cystic cell,inhibits
same,dependence of the effect on Ire1,"PKD mice; FIG. 36, 0.5 mg/kg, 1×/2 wks between 6-18 weeks of age",depends on the presence of Ire1
same,apoptosis in cyst cells with PC1 mutation,PKD mice; FIGS. 22A-22C,Enhanced apoptosis
same,systemic toxicity (body weight),PKD mice; FIGS. 22A-22C,No apparent systemic toxicity
same,collagen deposition,PKD mice; FIGS. 24A-24B,prevents
same,BUN (kidney function),"PKD mice; mouse, in vivo",reduction
same,kidney to body weight ratio,"PKD mice; mouse, in vivo",dramatic reduction
same,serum creatinine,"PKD mice; mouse, in vivo",reduction
same,BUN (kidney function),PKD mice; [8],Normalized kidney function
same,kidney to body weight ratio,PKD mice; [8],Reduced cyst growth
same,inhibition of IRE1α endoribonuclease activity,"[4]; Ri, et al., 2012",potent inhibitor
same,pIC50,"[4]; in vitro, read-out: IC50, inhibition of Ire1α endoribonuclease activity",~7.00
same,inhibition of IRE1α kinase activity,IRE1α kinase activity,does not inhibit
same,impact on nucleotide incorporation,nucleotide incorporation,without any impact
same,systemic side effects,[5],no apparent systemic side effects
